Data: ChEMBL document CHEMBL5532697, “Imidazopyrimidine: from a relatively exotic scaffold to an evolving structural motif in drug discovery” (RSC Med Chem, 2024)
In brackets after ≈: the same amount, converted by molar mass. Blank lines part the entries; values can stand above or below the compound they belong to.

Key:
COLO 205 = test: Antiproliferative activity against human COLO 205 cells assessed as inhibition of cell growth incubated for 48 hrs by alamarblue staining based assay; type: functional; conditions: COLO 205, 48 h
MCF7 = test: Antiproliferative activity against human MCF7 cells assessed as inhibition of cell growth incubated for 48 hrs by alamarblue staining based assay; type: functional; conditions: MCF7, 48 h
A549 [1] = test: Antiproliferative activity against human A549 cells assessed as inhibition of cell growth incubated for 48 hrs by alamarblue staining based assay; type: functional; conditions: A549, 48 h
Pyruvate kinase PKM = Pyruvate kinase PKM (Homo sapiens, UniProt P14618); test: Inhibition of recombinant PKM2 (unknown origin)
Chain of Pyruvate kinase PKM (P14618 whole entry): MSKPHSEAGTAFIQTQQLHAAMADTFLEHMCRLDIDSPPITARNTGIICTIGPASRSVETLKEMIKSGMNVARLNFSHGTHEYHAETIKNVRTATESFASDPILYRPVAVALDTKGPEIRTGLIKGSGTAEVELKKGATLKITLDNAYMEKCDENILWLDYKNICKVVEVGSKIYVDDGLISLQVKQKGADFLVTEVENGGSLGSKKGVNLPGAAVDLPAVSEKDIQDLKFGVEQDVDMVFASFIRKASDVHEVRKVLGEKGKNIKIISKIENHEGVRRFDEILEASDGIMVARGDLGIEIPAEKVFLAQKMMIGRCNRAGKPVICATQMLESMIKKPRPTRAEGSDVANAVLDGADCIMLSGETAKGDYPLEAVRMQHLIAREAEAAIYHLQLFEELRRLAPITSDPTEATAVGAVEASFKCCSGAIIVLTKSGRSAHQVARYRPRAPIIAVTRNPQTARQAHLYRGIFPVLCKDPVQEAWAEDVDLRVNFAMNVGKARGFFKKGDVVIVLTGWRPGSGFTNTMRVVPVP

A549 [2] = test: Antiproliferative activity against human A549 cells assessed as inhibition of cell growth by MTT assay; type: functional, cell-based
Albumin = Albumin (Homo sapiens, UniProt P02768); test: Inhibition of Albumin (unknown origin) denaturation at 100 uM relative to control
Chain of Albumin (P02768 whole entry): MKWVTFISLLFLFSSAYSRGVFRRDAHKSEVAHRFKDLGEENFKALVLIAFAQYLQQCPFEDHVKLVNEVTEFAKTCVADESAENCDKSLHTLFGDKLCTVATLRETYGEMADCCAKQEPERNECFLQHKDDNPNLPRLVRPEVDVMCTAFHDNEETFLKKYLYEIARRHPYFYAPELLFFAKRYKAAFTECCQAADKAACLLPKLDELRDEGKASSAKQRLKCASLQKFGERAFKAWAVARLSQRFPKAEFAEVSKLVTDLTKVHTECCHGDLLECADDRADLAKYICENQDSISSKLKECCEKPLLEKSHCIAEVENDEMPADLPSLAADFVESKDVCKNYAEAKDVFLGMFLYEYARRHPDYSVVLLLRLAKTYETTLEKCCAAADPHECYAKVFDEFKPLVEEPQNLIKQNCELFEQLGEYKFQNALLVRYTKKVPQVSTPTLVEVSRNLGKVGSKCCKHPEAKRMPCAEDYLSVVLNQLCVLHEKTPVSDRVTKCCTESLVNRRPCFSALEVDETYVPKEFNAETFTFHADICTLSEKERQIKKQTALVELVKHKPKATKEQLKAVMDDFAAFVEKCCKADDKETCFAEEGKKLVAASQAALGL

Candida albicans [3] = test: Antifungal activity against Candida albicans NCPF 400034 assessed as inhibition of fungal growth incubated for 48 hrs; type: functional
Neurospora crassa = test: Antifungal activity against Neurospora crassa assessed as inhibition of fungal growth incubated for 48 hrs; type: functional
Kluyveromyces marxianus [4] = test: Synergetic antifungal activity against Candida keyfer […] 410004 assessed as fractional inhibitory concentration index incubated for 24 hrs in the presence of amphotericin B by checkerboard microdilution method; type: functional
Cryptococcus neoformans = test: Antifungal activity against Cryptococcus neoformans NCPF 250316 assessed as inhibition of fungal growth incubated for 48 hrs; type: functional
Kluyveromyces marxianus [5] = test: Antifungal activity against Candida keyfer […] 410004 assessed as inhibition of fungal growth incubated for 48 hrs; type: functional
Aspergillus niger = test: Antifungal activity against Aspergillus niger assessed as inhibition of fungal growth incubated for 48 hrs; type: functional
K562 = test: Antiproliferative activity against human K562 cells assessed as inhibition of cell growth incubated for 72 hrs by MTT assay; type: functional, cell-based; conditions: K562, 72 h
A549 [6] = test: Antiproliferative activity against human A549 cells assessed as inhibition of cell growth incubated for 72 hrs by MTT assay; type: functional, cell-based; conditions: A549, 72 h
CCRF-CEM = test: Antiproliferative activity against human CCRF-CEM cells assessed as inhibition of cell growth incubated for 72 hrs by MTT assay; type: functional, cell-based
CEM-DNR = test: Antiproliferative activity against human CEM-DNR cells assessed as inhibition of cell growth incubated for 72 hrs by MTT assay; type: functional, cell-based
BK polyomavirus = test: Antiviral activity against BK polyomavirus MM infected in human HFF cells assessed as reduction in viral growth incubated for 7 days; type: functional, organism-based; conditions: Betapolyomavirus hominis, 168 h
[7] = Cytotoxicity against human HFF cells assessed as cell growth inhibition by celltiter-glo assay; type: toxicity, cell-based
Candida albicans [8] = test: Antifungal activity against Candida albicans ATCC 10231 assessed as reduction in fungal growth incubated for 24 hrs by CLSI based assay; type: functional
Pichia kudriavzevii = test: Antifungal activity against Candida krusei ATCC 6358 assessed as reduction in fungal growth incubated for 24 hrs by CLSI based assay; type: functional
Candida dubliniensis = test: Antifungal activity against Candida dubliniensis CD36 assessed as reduction in fungal growth incubated for 24 hrs by CLSI based assay; type: functional
Kluyveromyces marxianus [9] = test: Antifungal activity against Candida kefyr assessed as reduction in fungal growth incubated for 24 hrs by CLSI based assay; type: functional
[10] = test system: Meyerozyma guilliermondii; test: Antifungal activity against Meyerozyma guilliermondii assessed as reduction in fungal growth incubated for 24 hrs by CLSI based assay; type: functional
Nakaseomyces glabratus = test: Antifungal activity against Candida glabrata CBS138 assessed as reduction in fungal growth incubated for 24 hrs by CLSI based assay; type: functional
Candida tropicalis = test: Antifungal activity against Candida tropicalis MYA-3404 assessed as reduction in fungal growth incubated for 24 hrs by CLSI based assay; type: functional
HCT-116 = test: Antiproliferative activity against human HCT-116 cells assessed as inhibition of cell growth incubated for 72 hrs by MTT assay; type: functional, cell-based; conditions: HCT-116, 72 h
Aorta = test: Vasorelaxant activity in rabbit aorta assessed as inhibition of phenylephrine-induced contraction; type: functional, tissue-based; conditions: Oryctolagus cuniculus
[11] = target: cAMP and cAMP-inhibited cGMP 3',5'-cyclic phosphodiesterase 10A (Homo sapiens, UniProt Q9Y233); test: Inhibition of full length human PDE10A incubated for 1 hr by topcount Scintillation plate reader analysis
Chain of cAMP and cAMP-inhibited cGMP 3',5'-cyclic phosphodiesterase 10A (Q9Y233 whole entry): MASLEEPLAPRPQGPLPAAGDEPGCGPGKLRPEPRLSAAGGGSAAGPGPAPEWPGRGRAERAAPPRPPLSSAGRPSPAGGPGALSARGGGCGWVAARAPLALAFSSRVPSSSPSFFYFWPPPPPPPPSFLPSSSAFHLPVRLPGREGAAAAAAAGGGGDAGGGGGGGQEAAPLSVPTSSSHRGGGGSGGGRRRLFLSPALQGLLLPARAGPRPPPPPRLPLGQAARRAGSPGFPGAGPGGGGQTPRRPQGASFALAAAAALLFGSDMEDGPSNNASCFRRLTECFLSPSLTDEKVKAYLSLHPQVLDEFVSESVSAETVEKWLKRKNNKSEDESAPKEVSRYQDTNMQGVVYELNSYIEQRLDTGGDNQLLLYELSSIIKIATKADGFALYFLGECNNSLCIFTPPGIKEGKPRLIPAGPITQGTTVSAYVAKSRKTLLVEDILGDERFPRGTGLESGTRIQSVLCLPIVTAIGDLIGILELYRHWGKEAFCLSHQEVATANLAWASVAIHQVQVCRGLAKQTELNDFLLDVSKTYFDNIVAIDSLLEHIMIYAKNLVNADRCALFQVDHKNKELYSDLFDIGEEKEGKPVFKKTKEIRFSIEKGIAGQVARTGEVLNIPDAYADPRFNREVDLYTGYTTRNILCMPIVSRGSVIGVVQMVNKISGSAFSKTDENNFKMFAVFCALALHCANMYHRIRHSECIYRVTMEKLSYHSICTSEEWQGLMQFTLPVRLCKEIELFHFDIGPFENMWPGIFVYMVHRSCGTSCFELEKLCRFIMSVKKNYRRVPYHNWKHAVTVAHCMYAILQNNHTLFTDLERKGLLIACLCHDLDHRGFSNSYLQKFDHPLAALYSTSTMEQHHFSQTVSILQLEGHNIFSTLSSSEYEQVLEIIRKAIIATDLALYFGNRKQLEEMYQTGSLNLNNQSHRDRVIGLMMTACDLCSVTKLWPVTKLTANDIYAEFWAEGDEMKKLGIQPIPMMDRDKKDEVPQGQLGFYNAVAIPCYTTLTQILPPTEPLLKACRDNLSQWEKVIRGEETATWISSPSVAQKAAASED

Compound: CC(=O)NC1(Cc2ccc(O)cc2)C(=O)N=C2N=CC=CN21 (stereo unspecified)
IC50 (A549 [2]): 6.4 µM

Compound: O=C(CN1CCN(c2ccco2)CC1)c1cnc2ncccn12
IC50 (COLO 205): 61 µM | IC50 (MCF7): 10.9 µM | IC50 (A549 [1]): 19.4 µM | IC50 (Pyruvate kinase PKM): 0.31 µM

Compound: c1ccc([Se]Cc2cn3cccnc3n2)cc1
MIC (Candida albicans [3]): 36 mg/L (≈ 125 µM) | MIC (Neurospora crassa): 18 mg/L (≈ 62.5 µM) | fractional inhibitory concentration index (FICI) (Kluyveromyces marxianus [4]): 3.6 | MIC (Cryptococcus neoformans): > 36 mg/L | MIC (Kluyveromyces marxianus [5]): > 36 mg/L | MIC (Aspergillus niger): > 36 mg/L

Compound: O=C(CN1CCN(C(=O)c2ccc(Cl)cc2)CC1)c1cnc2ncccn12
IC50 (COLO 205): 28 µM | IC50 (MCF7): 11.8 µM | IC50 (A549 [1]): 25.3 µM | IC50 (Pyruvate kinase PKM): 1.86 µM

Compound: Nc1ccn(C[C@@H](CO)OCP(=O)(O)O)c(=O)n1 [CIDOFOVIR ANHYDROUS]
EC50 (BK polyomavirus): 0.24 µM | CC50 [7]: > 150 µM

Compound: CC(=O)N1CCN(c2ccc(OCC3COC(Cn4ccnc4)(c4ccc(Cl)cc4Cl)O3)cc2)CC1 (stereo unspecified) [KETOCONAZOLE]
MIC (Candida albicans [8]): 8 mg/L (≈ 15.1 µM) | MIC (Pichia kudriavzevii): 1 mg/L (≈ 1.88 µM) | MIC (Candida dubliniensis): 2 mg/L (≈ 3.76 µM) | MIC (Kluyveromyces marxianus [9]): 0.25 mg/L (≈ 0.47 µM) | MIC [10]: 0.125 mg/L (≈ 0.235 µM) | MIC (Nakaseomyces glabratus): 0.25 mg/L (≈ 0.47 µM) | MIC (Candida tropicalis): 2 mg/L (≈ 3.76 µM)

Compound: CC(=O)c1ccc(C(=O)N2CCN(CC(=O)c3cnc4ncccn34)CC2)cc1
IC50 (COLO 205): 104 µM | IC50 (MCF7): 11.8 µM | IC50 (A549 [1]): 35.4 µM | IC50 (Pyruvate kinase PKM): 0.73 µM

Compound: Cc1ccc(S(=O)(=O)C2=CN(c3ccccc3)C(=O)N3CCN=C23)cc1
EC50 (BK polyomavirus): 93 µM | CC50 [7]: > 150 µM

Compound: CC(C)(C)c1nc(-c2cccc(NS(=O)(=O)c3c(F)cccc3F)c2F)c(-c2ccnc(N)n2)s1 [DABRAFENIB]
IC50 (A549 [2]): 0.003 µM

Compound: CC(=O)NC1(Cc2c[nH]c3ccc(Br)cc23)C(=O)N=C2N=CC=CN21 (stereo unspecified)
IC50 (A549 [2]): 1.4 µM

Compound: CC(=O)NC1(Cc2ccc(N)cc2)C(=O)N=C2N=CC=CN21 (stereo unspecified)
IC50 (A549 [2]): 3.2 µM

Compound: O=C(CN1CCN(c2ccc(Cl)cc2)CC1)c1cnc2ncccn12
IC50 (COLO 205): 28 µM | IC50 (MCF7): 12.9 µM | IC50 (A549 [1]): 37.5 µM | IC50 (Pyruvate kinase PKM): 0.79 µM

Further lines, with some results ahead:

IC50 (COLO 205): 64.8 µM | IC50 (MCF7): 11 µM | IC50 (A549 [1]): 27.9 µM | IC50 (Pyruvate kinase PKM): 1.2 µM
Compound: N#Cc1ccccc1N1CCN(CC(=O)c2cnc3ncccn23)CC1

inhibition at 100 µM (Albumin): 96.4%
Compound: c1ccc(-c2ccc(-c3cn4cccnc4n3)cc2)cc1

inhibition at 100 µM (Albumin): 41.7%
Compound: Clc1ccc(-c2cn3cccnc3n2)cc1

IC50 (K562): 15.2 µM | IC50 (A549 [6]): 10.1 µM | IC50 (CCRF-CEM): 8.59 µM
Compound: O=c1[nH]cc(-c2ccc(-c3ccccc3)cc2)c2nccn12
IC50 (CEM-DNR): 2.84 µM

MIC (Candida albicans [8]): 0.12 mg/L (≈ 0.506 µM) | MIC (Pichia kudriavzevii): 0.5 mg/L (≈ 2.11 µM) | MIC (Candida dubliniensis): 0.25 mg/L (≈ 1.05 µM) | MIC (Kluyveromyces marxianus [9]): 0.5 mg/L (≈ 2.11 µM) | MIC [10]: 0.062 mg/L (≈ 0.261 µM) | MIC (Nakaseomyces glabratus): 0.062 mg/L (≈ 0.261 µM) | MIC (Candida tropicalis): 0.25 mg/L (≈ 1.05 µM)
Compound: Cc1ccc(C(=O)c2cnc3ncccn23)cc1

MIC (Candida albicans [8]): 0.062 mg/L (≈ 0.257 µM) | MIC (Pichia kudriavzevii): 0.5 mg/L (≈ 2.07 µM) | MIC (Candida dubliniensis): 0.5 mg/L (≈ 2.07 µM) | MIC (Kluyveromyces marxianus [9]): 0.125 mg/L (≈ 0.518 µM) | MIC [10]: 0.25 mg/L (≈ 1.04 µM) | MIC (Nakaseomyces glabratus): 0.031 mg/L (≈ 0.129 µM) | MIC (Candida tropicalis): 0.25 mg/L (≈ 1.04 µM)
Compound: O=C(c1ccc(F)cc1)c1cnc2ncccn12

IC50 (K562): 17.7 µM | IC50 (A549 [6]): 5.07 µM | IC50 (HCT-116): 42.5 µM | IC50 (CCRF-CEM): 1.45 µM
Compound: N#Cc1ccc(-c2c[nH]c(=O)n3ccnc23)cc1
IC50 (CEM-DNR): 18.8 µM

IC50 (Aorta): 0.215 µM
Compound: Nc1nc(N)nc(-c2nc(Cc3ccccc3F)c3ncccn23)n1

IC50 [11]: 0.002 µM
Compound: Cc1c(C(=O)NCc2c[nH]cn2)cnn1C(=O)Nc1ccn2cc(-c3ccccc3)nc2n1

MIC (Candida albicans [8]): 0.125 mg/L (≈ 0.56 µM) | MIC (Pichia kudriavzevii): 0.5 mg/L (≈ 2.24 µM) | MIC (Candida dubliniensis): 0.062 mg/L (≈ 0.278 µM) | MIC (Kluyveromyces marxianus [9]): 0.125 mg/L (≈ 0.56 µM) | MIC [10]: 0.062 mg/L (≈ 0.278 µM) | MIC (Nakaseomyces glabratus): 0.062 mg/L (≈ 0.278 µM) | MIC (Candida tropicalis): 0.5 mg/L (≈ 2.24 µM)
Compound: O=C(c1ccccc1)c1cnc2ncccn12

inhibition at 100 µM (Albumin): 82.9%
Compound: Cc1ccc(-c2cn3cccnc3n2)cc1
